Measured values published in patent publication US20170044100A1, “INHIBITORS OF DRUG-RESISTANT MYCOBACTERIUM TUBERCULOSIS” (THE JOHNS HOPKINS UNIVERSITY, priority 2014, published 2017).
Values after ≈ are worked out from the molar mass of the structure shown.

Tests used:
[1] = system: M. tuberculosis IAR2 (mmpL3 S288T mutant); format: cell-based, Mycobacterium tuberculosis
[2] = system: TF274 (extensively drug resistant strain of M. tuberculosis); assay: microbe, parasite or virus in culture; format: cell-based; conditions: Mycobacterium tuberculosis; read-out: MIC TF274 (XDR)
[3] = system: R506 (extensively drug resistant strain of M. tuberculosis); assay: microbe, parasite or virus in culture; format: cell-based; conditions: Mycobacterium tuberculosis; read-out: MIC R506 (XDR)
[4] = system: KZN494 (multi-drug resistant strain of M. tuberculosis); assay: microbe, parasite or virus in culture; format: cell-based; conditions: Mycobacterium tuberculosis; read-out: MIC KZN494 (MDR)
[5] = system: V2475 (multi-drug resistant strain of M. tuberculosis); assay: microbe, parasite or virus in culture; format: cell-based; conditions: Mycobacterium tuberculosis; read-out: MIC V2475 (MDR)

Compound	Fold change in MIC for IAR2 [1]	MIC for IAR2 [1]	MIC [2]	MIC [3]	MIC [4]	MIC [5]	MIC upshift for IAR2 versus H37Rv [1]	MIC for IAR2 compared with H37Rv [1]
NCC[C@H](O)C(=O)N[C@@H]1C[C@H](N)[C@@H](O[C@H]2O[C@H](CN)[C@@H](O)[C@H](O)[C@H]2O)[C@H](O)[C@H]1O[C@H]1O[C@H](CO)[C@@H](O)[C@H](N)[C@H]1O [Amikacin]	0	1 µg/mL						
Cc1cc(C)c2cc(C(=O)NC3CCCCC3)[nH]c2c1 [Compound 3, N-Cyclohexyl-4,6-dimethyl-1H-indole-2-carboxamide]	≧(512-1024)	≧128 μg/mL	0.46 µM (≈ 0.124 µg/mL)	0.46 µM (≈ 0.124 µg/mL)	3.7 µM (≈ 1 µg/mL)	0.93 to 1.9 µM (≈ 0.251 to 0.514 µg/mL)	≥ 1024 fold	
Cc1cc(C)c2cc(C(=O)NC3CCCCCC3)[nH]c2c1 [Compound 11, N-Cycloheptyl-4,6-dimethyl-1H-indole-2-carboxamide]	32-64	1 µg/mL	0.055 µM (≈ 0.0156 µg/mL)	0.055 µM (≈ 0.0156 µg/mL)	0.11 µM (≈ 0.0313 µg/mL)	0.11 µM (≈ 0.0313 µg/mL)		
Cc1cc(C)c2cc(C(=O)NC3CCCCCCC3)[nH]c2c1 [Compound 12, N-Cyclooctyl-4,6-dimethyl-1H-indole-2-carboxamide]	64	0.25 µg/mL	0.026 µM (≈ 0.00776 µg/mL)	0.0067 µM (≈ 0.002 µg/mL)				
CC[C@@H](CO)NCCN[C@@H](CC)CO [Ethambutol]	0	1 µg/mL						
NNC(=O)c1ccncc1 [Isoniazid, reference compound]	0	0.04 µg/mL						
CO[C@H]1/C=C/O[C@@]2(C)Oc3c(C)c(O)c4c(O)c(c(/C=N/N5CCN(C)CC5)c(O)c4c3C2=O)NC(=O)/C(C)=C\C=C\[C@H](C)[C@H](O)[C@@H](C)[C@@H](O)[C@@H](C)[C@H](OC(C)=O)[C@@H]1C [Rifampin]	0.25	0.03125 µg/mL						lower MIC value
CC(C)=CCC/C(C)=C/CNCCNC1C2CC3CC(C2)CC1C3 (stereo not shown) [SQ109]	16	4 µg/mL						
AU1235		>64 µg/mL						
BM212	2	4 µg/mL					2 fold	
Capreomycin	0	1 µg/mL						
